# Test system: polychromatic erythrocytes from rat bone marrow
# Test: Bone marrow micronucleus assay in rats
# Conditions: 20 mg/kg/day oral, once only, male rats, positive control
# Experimental: The objective of this study was to assess the potential of 5-[2-(1-methylethyl)-2,3-dihydro-1H-isoindol-5-yl]-3-(1-{[2-(methyloxy)ethyl]sulfonyl}-4-piperidinyl)-1H-indole-7-carboxamide in induce structural chromosomal damage and/or aneuploidy in vivo, in polychromatic erythrocytes from rat bone marrow, when administered to rats for two consecutive days.
# Crl: CD(SD) rats were used in this study.
# Doses of 500, 1000, 2000 mg/kg/day of 5-[2-(1-methylethyl)-2,3-dihydro-1H-isoindol-5-yl]-3-(1-{[2-(methyloxy)ethyl]sulfonyl}-4-piperidinyl)-1H-indole-7-carboxamide, or vehicle (0.5% (w/v) aqueous hydroxypropylmethylcellulose containing 0.1% (w/v) Tween 80), were given orally (by gavage) to groups of 3 male and 3 female rats. […]
# Doses of 1000 or 2000 mg/kg/day—5-[2-(1-methylethyl)-2,3-dihydro-1H-isoindol-5-yl]-3-(1-{[2-(methyloxy)ethyl]sulfonyl}-4-piperidinyl)-1H-indole-7-carboxamide or vehicle (0.5% (w/v) aqueous hydroxypropylmethylcellulose containing 0.1% (w/v) Tween 80) were given orally, by gavage, on two consecutive days to groups of 6 male rats. […] Smears were stained with acridine orange prior to analysis with fluorescense microscopy to determine the proportion of polychromatic erythrocytes in the total erythrocyte count (% PCE) and the number of micronucleated polychromatic erythrocytes (MPCE) per 2000 PCE analysed.
compound,measurement,value
"O=P1(N(CCCl)CCCl)NCCCO1 (centres unmarked) [Cyclophosphamide, cyclophosphamide]",Group Mean % PCE,46%
same,Group Mean MPCE,51.87 per 2000 PCE analysed
